Here are results for eleven molecules from PMC6429585, “Synthesis, Microtubule-Binding Affinity, and Antiproliferative Activity of New Epothilone Analogs and of an EGFR-Targeted Epothilone-Peptide Conjugate” (International Journal of Molecular Sciences, 2019).

Read-outs that look alike come from different tables or passages of the source.

By IC50 is commonly meant the concentration that inhibits the measured activity by half. As usually defined, the Kd is a measure of binding affinity in units of concentration.

Test [1] relates to SW480 cells. Nature of the test: cells. The format is cell-based, human. To be noted: Homo sapiens, read-out: IC50 SW480. The procedure:
(§1) Experiments were performed in RPMI (SW480 cells) or DMEM (HEK293 and A431 cells) medium (Gibco) supplemented with 2 mM glutamine, 10% fetal bovine serum, 100 IU/mL penicillin, 100 µg/mL streptomycin, and 1 µg/mL amphotericin B (all from Sigma) at 37 °C and 5% CO2. Cells were seeded into 96-well microtiter plates and compounds were added in DMSO in serial dilutions in triplicate. The final DMSO (dimethylsulfoxide) concentration was 0.1%. After 72 h, a WST-1 reagent was added and the absorption was measured at 450 nm with a plate reader after 30 min to 4 h. The percentage of viable cells was calculated based on vehicle-treated cells and was plotted in GraphPadPrism. At least three independent experiments were performed.
(§2) A431 cells were obtained from CLS. The other cell lines were available in the laboratory. WST-1 was purchased from Roche.

The subject of test [2] is A431 cells. Nature of the test: cells. The conditions noted are these: Homo sapiens, read-out: IC50 A431. The format is cell-based, human. The procedure: as §1, §2
The test system of test [3] is HEK293 cells. Put plainly: cells. The format is cell-based, human. The conditions noted are these: Homo sapiens, read-out: IC50 HEK293. The procedure: as §1, §2
The target in test [4] is glutaraldehyde-stabilized microtubules (paclitaxel binding site). Nature of the test: Microtubule binding affinity by displacement of Flutax-2 (fluorescence anisotropy). Further details: species or system calf. The procedure: The binding affinity of epothilone analogs 1, 14, and 16 and of targeted conjugate 4 for microtubules was determined as previously described by Díaz and co-workers, using partly cross-linked microtubules and determining the changes in fluorescence anisotropy upon displacement of the fluorescent taxol derivative Flutax-2 [42, 43] (Figure S3).
Purified calf-brain tubulin and chemicals were obtained as previously described. Stabilized, moderately crosslinked microtubules were prepared as reported in [42]. Binding constants of azathilones to stabilized microtubules were measured as previously described by Buey et al.. For details of the experimental procedures and Flutax-2 displacement curves cf. Section SI.3 of the Supplementary Materials.
SI.3. Disulfide cleavage asssay
Figure S2. […]
60 mg of frozen tubulin were thawed and loaded on a Sephadex G-25 column pre-equilibrated with cold 1 mM EGTA, 3.4 M glycerol, 10 mM sodium phosphate pH 6.8 buffer supplemented with 0.1 mM GTP. […] Fractions were collected and analyzed by spectrophotometry at 295 nm on a Thermo Evolution 300LC device. […] The tubulin concentration of the supernatant was determined by spectrophotometry at a 1:20 dilution of 10 mM sodium phosphate buffer containing 1%
SDS. The concentration was calculated with an extinction coefficient of 107’000 M-1cm-1 at 276 nm. […]
The concentration was measured spectrophotometrically as previously. […]

The subject of test [5] is EGFR. To be noted: read-out: IC50 for displacement of [^125I]-EGF from the EGFR; cited from earlier work.
Test [6] relates to cross-linked stabilized microtubules. Also on record: method as in earlier work. To be noted: cited from earlier work.
Test [7] concerns the target EGFR (Homo sapiens) (UniProt P00533). Put plainly: SPR. To be noted: cited from earlier work.
Test [8] concerns the target stabilized, moderately crosslinked microtubules (calf-brain tubulin) (calf (endogenous in calf brain)) (UniProt Q6B856). Nature of the test: fluorescence polarisation; displacement of the fluorescent taxol derivative Flutax-2 from glutaraldehyde-stabilized, partly cross-linked microtubules, read by change in fluorescence anisotropy; 35 °C; association constant Kb. (Fluorescence polarisation rises when a labelled molecule tumbles more slowly, as on binding a larger partner.)

`C/C(=C\c1csc(C)n1)[C@@H]1C[C@@H]2O[C@@H]2CCC[C@H](C)[C@H](O)[C@@H](C)C(=O)C(C)(C)[C@@H](O)CC(=O)O1` [Epo A, Epothilone A]: the IC50 in test [1] (SW480, 72 h) amounted to 0.0145 ± 0.00109 µM; in test [2] (A-431, 72 h), 0.00294 ± 0.0003 µM; in test [3] (HEK293, 72 h), 0.00271 ± 0.00062 µM.
The matching figures for `Cc1nc2cc([C@@H]3C[C@@H]4C[C@H]4CCC[C@H](C)[C@H](O)[C@@H](C)C(=O)C(C)(C)CCC(=O)O3)ccc2n1CCO` [compound 1, (1S,3S,10R,11S,12S,16R)-11-Hydroxy-3-(1-(2-hydroxyethyl)-2-methyl-1H-benzo[d]imidazol-5-yl)-8,8,10,12-tetramethyl-4-oxabicyclo[14.1.0] heptadecane-5,9-dione]: 0.0176 ± 0.0035 µM, 0.00332 ± 0.0006 µM and 0.00087 ± 0.00013 µM.
Consider `CC(=O)SCCn1c(C)nc2cc([C@@H]3C[C@@H]4C[C@H]4CCC[C@H](C)[C@H](O)[C@@H](C)C(=O)C(C)(C)CCC(=O)O3)ccc21` [compound 14, S-(2-(5-((1S,3S,10R,11S,12S,16R)-11-Hydroxy-8,8,10,12-tetramethyl-5,9-dioxo-4-oxabicyclo[14.1.0]heptadecan-3-yl)-2-methyl-1H-benzo[d]imidazol-1-yl)ethyl) ethanethioate], for which the “Kb lower compared to 1” value in test [4] (ratio of microtubule-binding affinity versus analog 1) is recorded as more than 10 fold.
Take `Cc1nc2cc([C@@H]3C[C@@H]4C[C@H]4CCC[C@H](C)[C@H](O)[C@@H](C)C(=O)C(C)(C)CCC(=O)O3)ccc2n1CCSSCCn1c(C)nc2cc([C@@H]3C[C@@H]4C[C@H]4CCC[C@H](C)[C@H](O)[C@@H](C)C(=O)C(C)(C)CCC(=O)O3)ccc21` [compound 16, Dimer of (1S,3S,10R,11S,12S,16R)-11-hydroxy-3-(1-(2-mercaptoethyl)-2-methyl-1H-benzo[d]imidazol-5-yl)-8,8,10,12-tetramethyl-4-oxabicyclo[14.1.0]heptadecane-5,9-dione]: the IC50 in test [1] (SW480, 72 h incubation, mean of three experiments ± SD) came out at 0.00891 ± 0.00126 µM; in test [2] (A-431, 72 h incubation, mean of three experiments ± SD), 0.00837 ± 0.00081 µM; in test [3] (HEK293, 72 h incubation, mean of three experiments ± SD), 0.00208 ± 0.00053 µM.
As to “CysCE11: GE11 peptide with a Cys residue added to the N-terminus; custom-made by Biosyntan (CYHWYGYTPQNVI) [reference compound]”, the “microtubule binding (in words)” value in test [4] was “no relevant microtubule binding”.
For the molecule “EGF: epidermal growth factor, natural EGFR ligand”, in test [5], the IC50 is 0.0051 µM.
Consider Flutax-2, for which the “Flutax-2 Ka” value is 6.5 107 M-1 in test [6] (26 °C); 5.9 107 M-1 in test [6] (27 °C); 4.6 107 M-1 in test [6] (30 °C); 4.2 107 M-1 in test [6] (32 °C); 3.0 107 M-1 in test [6] (35 °C); 2.2 107 M-1 in test [6] (37 °C). Further, the figures for the “Flutax-2 Ka” value in test [6] (40 °C) and in test [6] (42 °C) were 2.0 107 M-1 and 1.8 107 M-1, respectively.
In the case of GE11 peptide, in test [7], the equilibrium dissociation constant (Kd) was 459 µM.
For “GE11: 12-amino acid residue peptide of the sequence YHWYGYTPQNVI, reported to bind to EGFR [reference compound]”, in test [5], the IC50 is more than 1000 µM.

B1: epothilone-GE11 conjugate 4 (peptide)
peptide: CYHWYGYTPQNVI
modifications: side chain of the N-terminal Cys disulfide-linked to the thiol-containing epothilone analog 2; C-terminal amide (by the systematic name of 4)
As for B1, the Ka in test [8] is 9.3e+06 M⁻¹.

B2: Cys-GE11 peptide (peptide)
peptide: CYHWYGYTPQNVI
B2 returned a Ka in test [8] of 50000 M⁻¹.
